In article PMC5418947 (The Open Medicinal Chemistry Journal, 2017):
Read-outs that look alike come from different tables or passages of the source.

How the values were obtained:
[1] = molecular target: TcAChE (from electric eel) (Electrophorus electricus, UniProt O42275); assay: Cholinesterase assay; assay type: biochemical
[2] = molecular target: eqBuChE (from equine serum) (Equus caballus, UniProt P81908); assay: biochemical; assay type: biochemical
[3] = DPPH free radical scavenging; assay type: physicochemical; settings: read-out: DPPH IC50; 0.1 mM DPPH in methanol, 30 min, room temperature, 517 nm

Chain of eqBuChE (from equine serum) (P81908 whole entry): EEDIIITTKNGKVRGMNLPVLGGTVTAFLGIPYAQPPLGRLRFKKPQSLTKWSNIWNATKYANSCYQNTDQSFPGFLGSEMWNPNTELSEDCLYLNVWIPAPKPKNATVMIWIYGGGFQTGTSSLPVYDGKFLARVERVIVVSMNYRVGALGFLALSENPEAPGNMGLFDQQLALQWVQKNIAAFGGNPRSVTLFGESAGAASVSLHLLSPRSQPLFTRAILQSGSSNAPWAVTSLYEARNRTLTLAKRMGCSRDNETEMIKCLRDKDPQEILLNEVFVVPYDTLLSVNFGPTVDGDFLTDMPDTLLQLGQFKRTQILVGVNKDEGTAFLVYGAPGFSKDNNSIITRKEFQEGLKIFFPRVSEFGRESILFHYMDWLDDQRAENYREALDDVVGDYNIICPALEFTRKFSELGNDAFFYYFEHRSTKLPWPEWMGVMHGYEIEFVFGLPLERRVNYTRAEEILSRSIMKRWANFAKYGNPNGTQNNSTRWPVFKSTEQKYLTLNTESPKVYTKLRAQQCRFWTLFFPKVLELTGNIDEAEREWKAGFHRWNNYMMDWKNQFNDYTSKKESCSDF
Chain of TcAChE (from electric eel) (O42275 24-633): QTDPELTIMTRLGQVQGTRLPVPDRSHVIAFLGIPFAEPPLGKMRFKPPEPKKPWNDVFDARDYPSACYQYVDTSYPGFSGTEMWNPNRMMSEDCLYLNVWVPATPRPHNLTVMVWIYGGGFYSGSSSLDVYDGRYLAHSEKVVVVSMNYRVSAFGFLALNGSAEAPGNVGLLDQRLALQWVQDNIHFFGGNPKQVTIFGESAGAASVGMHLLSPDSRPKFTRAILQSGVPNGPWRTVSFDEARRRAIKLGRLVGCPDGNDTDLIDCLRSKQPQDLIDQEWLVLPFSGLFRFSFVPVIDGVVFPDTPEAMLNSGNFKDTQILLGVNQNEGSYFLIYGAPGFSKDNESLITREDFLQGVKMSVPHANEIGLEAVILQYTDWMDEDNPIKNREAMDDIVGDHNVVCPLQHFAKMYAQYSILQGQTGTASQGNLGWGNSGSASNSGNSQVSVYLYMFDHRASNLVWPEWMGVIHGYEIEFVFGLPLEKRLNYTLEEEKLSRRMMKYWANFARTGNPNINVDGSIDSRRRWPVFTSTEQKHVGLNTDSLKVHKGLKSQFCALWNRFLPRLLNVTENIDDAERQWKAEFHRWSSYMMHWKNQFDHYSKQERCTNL

SMILES	IC50 [1] [nM]	BuChE selectivity index (SI) = IC50(TcAChE)/IC50(eqBuChE) [2]	IC50 [2] [nM]	IC50 [3] [nM]	BuChE selectivity index (SI) = IC50(TcAChE)/IC50(eqBuChE) ([2]; ratio of IC50 values)	BuChE inhibitor activity, fold higher than tacrine [2]	BuChE inhibitor activity, fold higher than tacrine ([2]; relative to tacrine)	AChE inhibitory activity (in words) ([1]; Ellman's method)
Cc1c(C)c2c(c(C)c1O)CCC(C)(C(=O)NCCNc1c3c(nc4ccccc14)CCCC3)O2 (stereo not drawn) [Compound 8a, 6-Hydroxy-2,5,7,8-tetramethyl-N-{2-[(1,2,3,4-tetrahydroacridin-9-yl)amino]ethyl}-3,4-dihydro-2H-1-benzopyran-2-carboxamide]	1530	11.87	129	46200	–	–	–	–
Cc1c(C)c2c(c(C)c1O)CCC(C)(C(=O)NCCCNc1c3c(nc4ccccc14)CCCC3)O2 (stereo not drawn) [Compound 8b, 6-Hydroxy-2,5,7,8-tetramethyl-N-{3-[(1,2,3,4-tetrahydroacridin-9-yl)amino]propyl}-3,4-dihydro-2H-1-benzopyran-2-carboxamide]	1530	–	12.6	11500	121.62	–	–	–
Cc1c(C)c2c(c(C)c1O)CCC(C)(C(=O)NCCCCNc1c3c(nc4ccccc14)CCCC3)O2 (stereo not drawn) [Compound 8c, 6-Hydroxy-2,5,7,8-tetramethyl-N-{4-[(1,2,3,4-tetrahydroacridin-9-yl)amino]butyl}-3,4-dihydro-2H-1-benzopyran-2-carboxamide]	2200	196.07	11.2	14400	–	–	–	–
Cc1c(C)c2c(c(C)c1O)CCC(C)(C(=O)NCCCCCCNc1c3c(nc4ccccc14)CCCC3)O2 (stereo not drawn) [Compound 8d, 6-Hydroxy-2,5,7,8-tetramethyl-N-{6-[(1,2,3,4-tetrahydroacridin-9-yl)amino]hexyl}-3,4-dihydro-2H-1-benzopyran-2-carboxamide]	49.3	10.40	4.74	12700	–	more than 3 fold	–	–
c1ccc2c(NCCCCCCCN3CCc4c([nH]c5ccccc45)C3)c3c(nc2c1)CCCC3 [Compound 14, N-(7-(3,4-dihydro-1H-pyrido[3,4-b]indol-2(9H)-yl)heptyl)-1,2,3,4-tetrahydroacridin-9-amine]	–	–	3.16	129000	5.49	–	more than 3 fold	–
c1ccc2c3c([nH]c2c1)CN(CCN1CCc2c([nH]c4ccccc24)C1)CC3 [Compound 16, 1,2-Bis(3,4-dihydro-1H-pyrido[3,4-b]indol-2(9H)-yl)ethane]	> 100000	–	1700	126000	>58.88	–	–	no inhibitory activity
Cc1c(C)c2c(c(C)c1O)CCC(C)(C(=O)O)O2 (stereo not drawn) [Trolox, reference compound]	–	–	–	17600	–	–	–	–
